Assay results as given in US12070505B2, “Targeted peptide-drug conjugates” (priority 2021, dated 2024).
“And” between values parts separate entries of the source, which are not always exact repeats. Identical values can stand only once.

Legend:
Details in all cases: 5 μM
[1] = tested on: uterine sarcoma cells (MES-SA/MX2)
Method: In Vitro Cytotoxicity Assay of Peptide-Drug Conjugates. […] In brief, CCRF-CEM cells were seeded at 50,000 cells in 0.1 mL per well in 98-well plates. In the case of other cell lines, the cells were seeded at 5,000 cells (0.1 mL per well in 96-well plates). […] Dox (5 μM) was used as a positive control, while water and cell culture medium were used as negative controls. The compounds were dissolved in water; water was used as a negative control to normalize the data. After the incubation period, MTS reagent (20 μL) was added to each well. The incubation was continued for 2 h. Cell viability was then determined by determination of the fluorescence intensity at 490 nm using a SpectraMax M2 microplate spectrophotometer. The percentage of cell viability was then calculated using the following equation: [(OD value of cells treated with the compound)−(OD value of culture medium)]/[(OD value of control cells)−(OD value of culture medium)]×100% (FIGS. 6-9).

LLC-PK1 kidney cells = test: Cytotoxicity, MTS assay, normal kidney cells
Method: In Vitro Cytotoxicity Assay of Peptide-Drug Conjugates. The cytotoxicity of the compounds was determined by using human leukemia cell line (CCRF-CEM), human ovarian adenocarcinoma cells (SKOV-3) cells, kidney cell line (LLC-PK1), gastric adenocarcinoma cells (AGS), and heart/myocardium cells (H9C2) to evaluate the toxicity of the generated peptides according to a previously reported procedure (Rahman, A.; et al. Proc. Am. Assoc. Cancer Res. 26:2295-2299, 1985, which is incorporated herein by reference). In brief, CCRF-CEM cells were seeded at 50,000 cells in 0.1 mL per well in 98-well plates. In the case of other cell lines, the cells were seeded at 5,000 cells (0.1 mL per well in 96-well plates). The cells were seeded in medium (RPMI-1640 containing FBS (10%)), 24 h prior to the experiment. The compounds at different concentrations (10-50 μM) were added to each well in triplicate and incubated for 24 and 72 h at 37° C. in a humidified atmosphere of 5% CO2. Dox (5 μM) was used as a positive control, while water and cell culture medium were used as negative controls. The compounds were dissolved in water; water was used as a negative control to normalize the data. After the incubation period, MTS reagent (20 μL) was added to each well. The incubation was continued for 2 h. Cell viability was then determined by determination of the fluorescence intensity at 490 nm using a SpectraMax M2 microplate spectrophotometer.

MES-SA/MX2 cells = test: MTS cytotoxicity assay of [(WR)8WKβA]-Dox, MES-SA/MX2
Method: Cytotoxic activity of the synthesized conjugate and noncovalent mixtures of cyclic [WR]9+Dox was determined in SK-OV-3, MDA-MB-231, MCF-7, MES-SA/MX2, and H9C2 cells. […] An appropriate growth medium was used for each cell line (for SK-OV-3: McCoy's […] with L-glutamine containing fetal bovine serum (FBS) (10%) and penicillin or streptomycin (1%); for MDA-MB-231 and MCF-7 cells: DMEM/F12 (1:1) (1×) with L-Glutamine and 15 mM HEPES containing FBS (10%) and penicillin or streptomycin (1%), and for MES-SA/MX2 and H9C2 cells: Minimum Essential Medium Eagle with Earle's salts and sodium bicarbonate, without L-glutamine containing FBS (10%), and penicillin or streptomycin (1%)). The cells were seeded in a complete growth medium 24 h prior to the experiment. […] The incubation was continued for 3 h.

## COc1cccc2c1C(=O)c1c(O)c3c(c(O)c1C2=O)C[C@@](O)(C(=O)CO)C[C@@H]3O[C@H]1C[C@H](N)[C@H](O)[C@H](C)O1 [Dox, doxorubicin, reference compound]
[1]
  Cell Viability (%) after 72 h: 119 ± 5%
[1]; 72 h
  toxicity: did not show any toxicity
LLC-PK1 kidney cells; LLC-PK1, 24 h
  reduction of cell survival: 64%
LLC-PK1 kidney cells; LLC-PK1, 72 h
  reduction of cell survival: 77%
LLC-PK1 kidney cells; LLC-PK1, time not stated
  reduction of viability of kidney cells: 85%
LLC-PK1 kidney cells; normal kidney LLC-PK1
  Cell Viability (%) after 24 h: 44 ± 0% and 48 ± 2%
MES-SA/MX2 cells; 1 μM, 10 μM, or 20 μM
  efficiency against MES-SA/MX2: did not show significant efficiency
MES-SA/MX2 cells; MES-SA/MX2
  inhibition of cell viability/proliferation: 15%
